Assay results taken from patent US20230107770A1, “METHOD OF ENHANCING IMMUNOTHERAPY USING ER STRESS PATHWAY INHIBITORS” (H. LEE MOFFITT CANCER CENTER AND RESEARCH INSTITUTE, INC., priority 2020, published 2023).

Key:
LLC tumors = test: s.c. LLC tumor model in mice; format: in vivo
tumor-MDSC [1] = test: Ex vivo suppression assay: tumor-MDSC co-cultured with primed CFSE-labeled T cells; format: cell-based, mice
Experimental: CD3^+ T cells were enriched using mouse or human T cell negative selection kits (MagniSort, Invitrogen) from the spleen and lymph nodes of C57BL/6 mice; or from purchased human buffy-coat units (One-Blood, Tampa, Fla.). Purity ranged between 95% and 99% as tested by flow cytometry. For antigen-specific priming studies, CD8^+ T cells were enriched using negative selection kits from the spleens of OT-I mice previously activated with OVA257-264 (SIINFEKL) for 48 hours. Tumor-MDSC were isolated from cellular suspensions of digested tumors followed by positive selection (MojoSort Streptavidin Nanobeads, Biolegend) using anti-Gr1 (Clone RB6-8C5, eBioscience) or anti-CD11b-biotinylated antibodies (Clone M1/70, StemCell Technologies, Vancouver). Also, M-MDSC (CD11b^+Gr1^+Ly6G^lowLy6C^high), PMN-MDSC (CD11b^+Gr1^+Ly6G^+Ly6C^low), macrophages (CD11b^+Gr1^negF4/80^+CD11c^neg), and myeloid DCs (CD11b^+Gr1^negF4/80^negCD11c^+) were sorted from tumors in a FACSAriaII (BD Biosciences).
(§1) Murine BM-MDSC (ratio 1:1/8) or tumor-MDSC (ratio 1:1/4) were co-cultured with negatively selected CD3^+ T cells in a 96 well plate bound α-CD3 and α-CD28 (1 μg/ml each, eBioscience) for 3 days. T cell proliferation was assessed with Carboxyfluorescein succinimidyl ester (CFSE) or Cell-trace violet (Invitrogen) dye dilution detected by flow cytometry. For human studies, MDSC were co-cultured with enriched CD3^+ T cells activated with soluble α-CD3 (1 μg/ml, clone OKT3) and α-CD28 (0.5 μg/ml, clone L293) for 3 days in a 96 well plate bound with goat anti-mouse IgG (10 μg/ml). Results are expressed as percentage of proliferating T cells, determined by the dilution of fluorescence compared with non-stimulated T cells.

murine BM-MDSC = test: In vitro suppression assay with murine BM-MDSC; format: cell-based, mouse; settings: for potential of Thaps-treated Eif2ak3^KO-Tek BM-MDSC to impair T cell proliferation: 3 hours pre-treatment, Resveratrol 100 μM or D,L-Sulphoraphane 20 μM
Experimental: (§2) Mouse BM-MDSC were generated after culturing BM precursors with GM-CSF and G-CSF (20 ng/ml each) for 4 days. In vitro generated MDSC were treated with either LLC tumor explant supernatants (TES, since day 0) or Thaps (200 nM, for the last 24 hours of culture). Human BM-MDSC were developed after culturing BM or peripheral blood precursors from healthy donors with GM-CSF and IL-6 (10 ng/ml each) for a period of 6 days (Thevenot et al., 2014). To induce UPR activation, MDSC were treated with either supernatants from renal cell carcinoma cells 786-0 (hTES) for 6 days (Rodriguez et al., 2009) or Thaps during the last 24 hours before collection (200 nM). In some experiments, MDSC were pre-incubated for 3 hours with Resveratrol (100 μM, Sigma-Aldrich), D,L-Sulphoraphane (20 μM), AMG-44 (5 μM), or TUDCA (500 nM) before treating with Thaps.
as §1

human BM-MDSC = test: In vitro suppression assay with human BM-MDSC; format: cell-based
Experimental: as §2
as §1, with “For human studies, MDSC were co-cultured with enriched CD3^+ T cells activated with soluble α-CD3 (1 μg/ml, clone OKT3) and α-CD28 (0.5 μg/ml, clone L293) for 3 days in a 96 well plate bound with goat anti-mouse IgG (10 μg/ml).” left out

PERK = test: Immunoblot of PERK and phospho-PERK in MDSC; format: cell-based, mice
Text: (§3) Equal protein amounts of total and nuclear cell lysates were electrophoresed in 8 or 10% Tris-Glycine gels (Novex-Invitrogen), transferred to PVDF membranes by iBlot™ Gel Transfer Device (ThermoFisher), and blotted with the corresponding primary and secondary antibodies described in Key Resources Table. For nuclear fraction isolation, cells were lysed using NE-PER Nuclear and Cytoplasmic extraction kit (ThermoFisher). Membrane-bound immune complexes were detected by ChemiDoc™ Imaging System (Bio-Rad, #17001401).

IRE1α = test: Immunoblot of IRE1α and phospho-IRE1α in MDSC; format: cell-based, mice
Text: as §3

Ifnβ1 mRNA = test: Quantitative PCR of Ifnβ1 mRNA in MDSC; format: cell-based; settings: mice treated with SFRN vs untreated PERK-null mice
Experimental: Total RNA was isolated from MDSC using TRIzol (Life Technologies). Reverse transcription was performed using Verso cDNA Synthesis Kit (Thermo Scientific). Quantitative PCR reactions were prepared by using Bio-Rad SYBR green master mix and performed on an Applied Biosystems thermocycler (7900 HT) using primers described in Key Resources Table

tumor-MDSC [2] = settings: LLC-bearing mice treated with SFRN
Experimental: For surface staining, cells were labelled with the appropriate antibodies in the presence of Fc blocker. For intracellular staining, surface-labeled cells were fixed with Cytofix/Cytoperm™ Solution (BD Biosciences), washed in Perm/Wash™ 1× solution, and labelled with intracellular antibodies. Cells were then washed in Perm/Wash™ 1× and PBS. Live vs. dead cell discrimination was performed prior to antibody labeling by Zombie Fixable Viability dye (Biolegend). Ex vivo intracellular staining for IL-12 and TNFα was performed on isolated cells after stimulation for 6 hours with LPS (1 μg/ml, Sigma Aldrich) in the presence of Golgi stop (0.8 μl/ml, BD Biosciences). For IFNγ staining, cells were incubated for 5 hours with phorbol myristate acetate (PMA, 750 ng/mL, Sigma Aldrich) and ionomycin (50 μg/mL, Sigma-Aldrich) in the presence and Golgi stop (0.8 μl/ml). For ER-tracker and Mitotracker staining, cells were probed with 100 nM of ER tracker green or 200 nM of Mitotracker green (Invitrogen) and then stained for surface markers. For Mitochondrial membrane potential, cells were stained with JC-1 flow cytometry assay kit (Cayman chemicals) followed by surface markers staining. ROS were detected by DCFDA (10 μM) or Dihydroethidium (DHE, 10 μM). Data acquisition was performed in a CytoFLEX II (Beckman Coulter) or LSRII (BD Biosciences). All analysis was performed using FlowJo version 11 software.

tumor-MDSC [3] = settings: tumor-bearing Eif2ak3^KO-Lyz2 mice treated with SFRN vs untreated or Eif2ak3^Flox
Experimental: Oxygen consumption rate (OCR) through mitochondrial stress test and extracellular acidification rate (ECAR) by glycolysis stress profile were measured using a XF96 extracellular flux analyzer (Seahorse Bioscience). MDSC were plated onto CellTak pre-coated wells (1×10^5 cells/well in triplicate), and subjected to mitochondrial stress and glycolysis stress protocols using specific non-buffered XF base mediums. For OCR, cells were analyzed under basal conditions and in response to 2 μM oligomycin, 2 μM fluorocarbonyl-cyanide-phenylhydrazone (FCCP), and 0.5 μM rotenone. For ECAR, cells were plated in XF media lacking glucose and monitored under basal conditions and in response to 10 mM glucose, 10 μM oligomycin, and 100 mM 2-Deoxy-D-glucose (2-DG). Final values were obtained after protein normalization among the conditions.

B16 tumors = test: s.c. B16 melanoma tumor model in mice; format: in vivo
Arginase I = test: Immunoblot of Arginase I in tumor-MDSC; format: cell-based; settings: mice treated with TUDCA vs vehicle
Text: as §3

CD8+ TILs = test: Flow cytometry of tumor-infiltrating CD8+ T cells from treated mice; format: in vivo
Experimental: All analysis was performed using FlowJo version 11 software.

[4] = test system: tumor-MDSC from Pan02-OVA-ZsGreen tumors; test: Cross-presentation by tumor-MDSC from Pan02-OVA-ZsGreen tumors; format: cell-based; settings: TUDCA-treated mice bearing Pan02-OVA-ZsGreen tumors
Experimental: For antigen loading experiments, MDSC were sorted from LLC tumors and then pulsed with 1 μg/ml complete ovalbumin (OVA). After 16 hours, cells were washed twice and 2.5×10^4 MDSC co-cultured with 1×10^5 CFSE-labeled naïve CD8^+ T cells from spleens of OT-I mice (ratio 0.25:1). Positive controls included co-cultures of OT-I T cells with GM-CSF plus IL-4-derived BM-DCs loaded with 1 μg/ml complete OVA. For TME cross-priming assays, 1.25×10^4 MDSC from Pan02-Ova-ZsGreen tumors were co-cultured with 5×10^4 naïve CD8^+ T cells (1/4:1) from spleens of OT-I mice and labelled with Cell-trace violet. Positive control wells included OT-I T cells co-cultured with GM-CSF plus IL-4-derived BM-DCs loaded with 1 μg/ml OVA257-264 peptide. T cell proliferation was measured after 3 days of co-culture.

[5] = Blood glucose and pancreatic islets in B16-bearing mice; format: in vivo; settings: B16-bearing mice treated for a week; GSK2606414 25 mg/kg or AMG-44 12 mg/kg; day 17
Text: Hematoxylin and Eosin (H&E) stained slides were scanned in an Aperio AT2 whole slide scanner (Leica Biosystems Inc.) equipped with a 20×0.7NA objective lens Images were created at 0.5 micron per pixel resolution and imported into Definiens Tissue Studio software v4.7 (Definiens AG) for analysis. Islets were found using a semi-automated segmentation process. First an automatic segmentation was applied to the image to create contour lines around objects within the image. Objects that contained islets were classified as such and remaining objects were classified as non-islet tissue. Next, adjacent objects of the same classification were merged together to clean up the segmentation. Segmented images were analyzed to provide the total area of islets Immunofluorescence for mouse insulin in pancreas tissue sections was performed as we described (Sultan et al., 2017). Labeled samples were scanned with a Zeiss Imager Z2 Upright FL microscope with a 10× objective lens using the tile scan function. Images were created at a
0.65 micron per pixel resolution and imported into the Definiens Tissue Studio software v4.7 (Definiens AG) for islet detection and analysis. Islets were detected using a semi-automated segmentation process. First, an automatic segmentation was applied to the image to detect the tissue. Then, the software was trained to detect islet vs. non-islet tissue within the image. In order to remove false detected islets caused by background staining, detected islets larger than 150,000 square microns and less than 600 square microns were reclassified to non-islet tissue. Segmented images were then analyzed to provide the fluorescent intensity of islets and total tissue area.

[6] = cited from earlier work
[7] = LLC-bearing mice, Thaps 100 μg/kg i.p. vs vehicle
[8] = BM-MDSC, Thaps 200 nM, last 24 hours
[9] = LLC, SFRN 25 mg/kg i.p., 3 days per week
[10] = mice treated with TUDCA vs controls

## C/C=C(/C)C(=O)O[C@H]1C(C)=C2[C@H]([C@@H]1OC(=O)CCCCCCC)[C@@](C)(OC(C)=O)C[C@H](OC(=O)CCC)[C@@]1(O)[C@H]2OC(=O)[C@@]1(C)O [Thaps, Thapsigargin]
LLC tumors; [7]
  expansion of splenic-MDSC: increased the expansion of splenic-MDSC
  tumor progression: promoted tumor progression
tumor-MDSC [1]; tumor-MDSC from LLC-bearing mice treated with Thaps
  immunoregulatory potential of tumor-MDSC: elevated the immunoregulatory potential of tumor-MDSC
Murine BM-MDSC; murine BM-MDSC, Thaps 200 nM, last 24 hours
  ability to block T cell proliferation: enhanced ability to block T cell proliferation
Human BM-MDSC; human BM-MDSC, Thaps, last 24 hours
  ability to block T cell proliferation: enhanced ability to block T cell proliferation
PERK; [8]
  total and phosphorylated PERK: upregulation of total and phosphorylated PERK
IRE1α; [8]
  total and phosphorylated IRE1α: upregulation of total and phosphorylated PERK and IRE1α

## C[S+]([O-])CCCCN=C=S (stereo not drawn) [SFRN, Sulforaphane]
LLC tumors; [9]
  anti-tumor effects found in Eif2ak3^KO-Lyz2 mice: disabled the anti-tumor effects
  tumor progression in Eif2ak3^Flox mice: delaying tumor progression
tumor-MDSC [1]; LLC-bearing Eif2ak3^Flox mice treated with SFRN
  ROS levels and immunoregulatory potential of control MDSC: without affecting controls
tumor-MDSC [1]; LLC-bearing mice treated with SFRN, 1:1/4
  immunoregulatory potential of tumor Eif2ak3^KO-Lyz2 MDSC: restored the immunoregulatory potential
Murine BM-MDSC
  potential of Thaps-treated Eif2ak3^KO-Tek BM-MDSC to impair T cell proliferation: partially restored the potential
Ifnβ1 mRNA
  Ifnβ1 mRNA in tumor-MDSC from Eif2ak3^KO-Lyz2 mice: reduced Ifnβ1 mRNA levels
tumor-MDSC [2]
  ROS levels in tumor Eif2ak3^KO-Lyz2 MDSC: reduced ROS levels
tumor-MDSC [3]
  OCR of tumor-MDSC: elevated OCR

## Oc1ccc(C=Cc2cc(O)cc(O)c2)cc1 [Resveratrol]
Murine BM-MDSC
  potential of Thaps-treated Eif2ak3^KO-Tek BM-MDSC to impair T cell proliferation: partially restored the potential

## C[C@H](CCC(=O)NCCS(=O)(=O)O)[C@H]1CC[C@H]2[C@@H]3[C@@H](O)C[C@@H]4C[C@H](O)CC[C@]4(C)[C@H]3CC[C@]12C [TUDCA, Tauroursodeoxycholic acid]
LLC tumors; LLC tumors, TUDCA, Rag1^KO vs wild type mice
  anti-tumor actions in immunodeficient Rag1^KO mice: not found
LLC tumors; established LLC tumors, TUDCA 250 mg/kg daily after day 6 vs vehicle
  tumor growth: delayed tumor growth
B16 tumors; established B16 tumors, TUDCA 250 mg/kg daily after day 6 vs vehicle
  tumor growth: delayed tumor growth
tumor-MDSC [1]; LLC tumor-MDSC pre-treated ex vivo with TUDCA for 24 hours
  ability to block T cell proliferation: impaired the ability
tumor-MDSC [1]; tumor-MDSC (1:1/4) from LLC or B16 bearing mice treated with TUDCA vs vehicle
  ability of tumor-MDSC to block T cell proliferation: lower ability to block T cell proliferation
Murine BM-MDSC; murine BM-MDSC developed after exposing BM-iMC to TES, TUDCA in culture
  ability to block T cell proliferation: impaired the ability
Human BM-MDSC; human BM-MDSC conditioned with hTES, TUDCA in culture
  ability to block T cell proliferation: impaired the ability
Arginase I
  levels of Arginase I in tumor-MDSC: reduced levels of the inhibitory factor Arginase I
PERK; [10]
  expression of phospho-PERK in tumor-MDSC: lower expression of phospho-PERK
IRE1α; [10]
  expression of phospho-IRE1α in tumor-MDSC: lower expression of phospho-PERK and phospho-IRE 1α
CD8+ TILs; B16-bearing mice treated with TUDCA
  expansion of recently activated CD69+ CD44+ CD8+ T cells in tumors: Higher expansion
CD8+ TILs; B16-bearing mice, single treatment
  EGSRNQDWL-H-2D^b-tetramer+ CD8+ T cells recognizing gp100: promoted the spontaneous expansion
CD8+ TILs; B16-bearing mice, single treatment (anti-Gr1 experiment)
  recently activated CD69+ CD44+ CD8+ T cells: promoted the spontaneous expansion
CD8+ TILs; LLC-bearing mice treated with TUDCA
  expansion of recently activated CD69+ CD44+ CD8+ T cells in tumors: Higher expansion
[4]
  capacity of tumor-MDSC to prime OT-I T cell proliferation: higher capacity to prime OT-I T cell proliferation
  expression of SIINFEKL-bound H-2K^b in tumor-MDSC: heightened expression

## Cn1cc(-c2ccc3c(c2)CCN3C(=O)Cc2cccc(C(F)(F)F)c2)c2c(N)ncnc21 [GSK-2606414]
B16 tumors; B16-bearing mice, GSK-2606414 25 mg/kg i.p. daily vs vehicle
  tumor growth: Delayed tumor growth
B16 tumors; B16, daily i.p. GSK2606414 25 mg/kg or AMG-44 12 mg/kg from day 7
  tumor growth: delayed tumor growth
tumor-MDSC [1]; MDSC from tumors of GSK-2606414 treated B16-bearing mice
  immunoinhibitory activity of MDSC: lower immunoinhibitory activity of MDSC
CD8+ TILs; B16, GSK2606414 25 mg/kg or AMG-44 12 mg/kg, 17 days post-tumor injection
  frequency of IFNγ-producing CD8+ T cells in tumors: amplified the frequency of IFNγ-producing CD8^+ T cells in tumors
[5]
  glucose levels in the serum: failed to show alterations in glucose levels
[6]; 150 mg/kg, orally twice a day, previous studies
  hyperglycemia at high doses: induced hyperglycemia
[6]; Yu et al., 2015
  limitation for therapeutic use: induction of hyperglycemia as a result of pancreatic islet degeneration
